We go through five compounds from ChEMBL document CHEMBL1140273, “Carbonic anhydrase inhibitors: novel sulfonamides incorporating 1,3,5-triazine moieties as inhibitors of the cytosolic and tumour-associated carbonic anhydrase isozymes I, II and IX” (Bioorg Med Chem Lett, 2005).

The assay has as its target Carbonic anhydrase 9 (Homo sapiens, UniProt Q16790).

Usually Ki stands for a measure of affinity in units of concentration, obtained from inhibition or displacement. `NS(=O)(=O)c1ccc(CCNc2nc(Cl)nc(NCC(=O)O)n2)cc1` gave a Ki of 1 nM.
As for `CCN(CC)c1nc(NCc2ccc(S(N)(=O)=O)cc2)nc(N(CC)CC)n1`, the Ki stood at 7.5 nM.
To `NS(=O)(=O)c1ccc(Nc2nc(Oc3ccccc3)nc(Oc3ccccc3)n2)cc1` belongs 254 nM.
To `CCCNc1nc(NCCC)nc(Nc2ccc(S(N)(=O)=O)cc2)n1` belongs 56 nM.
Under `CC(C)Nc1nc(NCc2ccc(S(N)(=O)=O)cc2)nc(NC(C)C)n1` stands 16 nM.
